Reference: patent US20150104525A1, “METHOD OF DECREASING FEED CONVERSION RATIO IN FOWL” (Reoxcyn Discoveries Group, Inc., priority 2013, published 2015)

Tested on: NRF2
Assay: Western Blot validation of NRF2 nuclear accumulation and extra-nuclear protein phosphorylation
Type: cell-based, human
Conditions: HMVEC-L
Method: 8. A Western Blot analysis was done on extra-nuclear and intra-nuclear fractions, separated by differential centrifugation, of serum starved HMVEC-L cell cultures exposed to <1% of a composition of the invention compared with a positive hydrogen peroxide control to determine phosphorylation events (oxidant action) in the extra-nuclear fraction and NRF2 (antioxidant transcription) in the intra-nuclear fraction at 0, 30, 60, 90 and 120 min intervals.
Experimental Methods for Western Blot Validation of NRF2 Nuclear Accumulation: HMVEC-L were treated with 1% of a composition of the invention, nuclear extracts were separated through centrifugal differentiation from the extra-nuclear cytosol at 30, 60 and 120 min and subjected to Western Blot analysis for NRF2. In the Western blot experiment the extra-nuclear fraction was probed for phosphorylated proteins using a combination of anti-phospho serine, threonine and tyrosine antibodies. Virtually all cellular processes are regulated by posttranslational modifications and protein phosphorylation is a prevalent mechanism. […]

## OO [H2O2, Hydrogen peroxide]
H2O2 positive control, 30 min
  nuclear NRF2 levels: did not increase nuclear NRF2 levels
H2O2 treatment
  phosphorylation of extra-nuclear protein: marked increase in the phosphorylation
